Tests used:
[1] = biological target: T1, full-length, N-terminal, 6His-tagged human HSET (Homo sapiens, UniProt Q9BW19); assay: In vitro enzymatic ATPase assay (ADP-Glo), MT-stimulated activity; assay type: biochemical; details: for reduction of HSET ATPase function: first-pass enzymatic assay, at 100 μM, n = 3
T1 construct: The protocol was optimized for use with full-length, N-terminal, 6His-tagged HSET and KSP; made in house; host or cells: Sf9 insect cells (baculovirus, pFastBac1)
T1 sequence (Q9BW19 1-673): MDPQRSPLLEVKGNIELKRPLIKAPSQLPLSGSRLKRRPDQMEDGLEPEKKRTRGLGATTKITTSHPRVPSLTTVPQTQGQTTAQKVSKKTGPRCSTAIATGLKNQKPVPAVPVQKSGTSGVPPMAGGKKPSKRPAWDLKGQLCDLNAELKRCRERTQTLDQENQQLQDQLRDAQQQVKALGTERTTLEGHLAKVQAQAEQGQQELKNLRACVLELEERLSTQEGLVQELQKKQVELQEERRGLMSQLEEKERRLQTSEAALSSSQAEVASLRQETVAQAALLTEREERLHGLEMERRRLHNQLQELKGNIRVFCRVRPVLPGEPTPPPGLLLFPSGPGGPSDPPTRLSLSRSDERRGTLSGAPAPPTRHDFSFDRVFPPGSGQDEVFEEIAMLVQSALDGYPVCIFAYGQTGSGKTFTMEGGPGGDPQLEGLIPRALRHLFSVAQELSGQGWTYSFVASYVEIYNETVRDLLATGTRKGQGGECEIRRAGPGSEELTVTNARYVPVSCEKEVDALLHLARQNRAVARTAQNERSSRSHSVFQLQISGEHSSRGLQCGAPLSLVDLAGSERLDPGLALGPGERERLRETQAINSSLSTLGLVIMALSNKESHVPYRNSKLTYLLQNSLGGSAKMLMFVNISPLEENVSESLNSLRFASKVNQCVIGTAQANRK
From the text: (§1) The similarity decreases to 56% in the loop 5 binding cleft alone (residues 422–432; Figure 1A). Given the high degree of similarity between the proteins, and the potential for selective binding in the loop 5 cleft, the chemogenomics principle that similar proteins bind similar ligands was applied to HSET and KSP, and an in silico model for HSET binding was developed based on nearly 500 existing inhibitors of KSP in the ChEMBL database (see Experimental Procedures for details; [Klabunde, 2007]). Using the model parameters, we selected 200 compounds (in silico) from 20 million possibilities and further triaged them into 50 ligands that scored highest in the bioactivity model. We acquired and tested these ligands for in vitro activity using an ADP-Glo enzymatic assay (see Experimental Procedures for details; Figure 1B).
(§2) The protocol was optimized for use with full-length, N-terminal, 6His-tagged HSET and KSP, and measured the MT-stimulated activity of the proteins. Inhibition of the […] of HSET/KSP was observed spectrophotometrically by coupling the hydrolysis of ATP to oxidation of NADH via pyruvate kinase/lactate dehydrogenase reactions. The assay was initiated by […] an assay mixture containing the following components (final concentration): 6 nM protein, 0.07 mg/ml MTs (University Biologicals), […], 2 mM ATP, 2.7 mM MgCI, 1 mM phospho(enol)-pyruvate, 0.2 mM NADH, 50 μg/ml lactate dehydrogenase, 100 μg/ml pyruvate kinase, and various concentrations of inhibitor all in 50 mM Na PIPES (pH 6.8) at 37°C. The ADP-Glo detection assay (Promega) was performed as described in the manufacturer’s instructions. All compound additions were performed using a multidrop BioMek Nxp (Beckman Coulter). Plates were read using a Pherastar microplate reader (BMG Labtech).

[2] = biological target: T2, full-length, N-terminal, 6His-tagged KSP (Homo sapiens, UniProt P52732); assay: as above; assay type: biochemical; details: concentrations up to 250 μM, mean ± SD
T2 construct: IC50 values for CW069 and 3 against full-length, N-terminal, 6His-tagged HSET and KSP; made in house
T2 sequence (P52732 1-1056): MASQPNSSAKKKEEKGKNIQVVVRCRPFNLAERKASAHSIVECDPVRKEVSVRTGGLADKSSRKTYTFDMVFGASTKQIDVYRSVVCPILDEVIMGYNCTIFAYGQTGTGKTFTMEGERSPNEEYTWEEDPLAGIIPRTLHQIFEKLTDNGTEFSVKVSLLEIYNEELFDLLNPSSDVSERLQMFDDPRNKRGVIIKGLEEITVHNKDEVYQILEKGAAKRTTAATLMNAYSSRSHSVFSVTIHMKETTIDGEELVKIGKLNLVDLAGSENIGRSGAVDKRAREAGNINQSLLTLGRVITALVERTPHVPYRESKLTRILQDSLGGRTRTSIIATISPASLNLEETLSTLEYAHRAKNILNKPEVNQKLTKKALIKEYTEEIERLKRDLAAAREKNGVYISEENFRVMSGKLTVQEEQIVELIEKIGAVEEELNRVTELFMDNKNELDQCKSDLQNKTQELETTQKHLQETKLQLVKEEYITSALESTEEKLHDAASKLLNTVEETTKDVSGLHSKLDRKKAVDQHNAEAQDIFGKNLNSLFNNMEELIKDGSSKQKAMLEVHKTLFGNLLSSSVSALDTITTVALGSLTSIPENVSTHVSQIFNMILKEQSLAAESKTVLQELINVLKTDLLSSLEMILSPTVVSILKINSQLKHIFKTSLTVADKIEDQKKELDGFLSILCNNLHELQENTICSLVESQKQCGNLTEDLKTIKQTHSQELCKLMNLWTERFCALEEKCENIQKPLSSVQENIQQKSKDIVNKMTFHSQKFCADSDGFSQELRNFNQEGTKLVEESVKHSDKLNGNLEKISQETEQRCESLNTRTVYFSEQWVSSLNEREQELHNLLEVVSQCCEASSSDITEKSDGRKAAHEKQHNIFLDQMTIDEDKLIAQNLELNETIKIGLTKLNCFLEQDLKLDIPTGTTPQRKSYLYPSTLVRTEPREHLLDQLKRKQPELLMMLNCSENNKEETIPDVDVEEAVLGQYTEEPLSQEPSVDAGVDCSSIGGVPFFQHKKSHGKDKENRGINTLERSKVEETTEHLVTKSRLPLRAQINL
From the text: as §1, §2

HeLa cells [3] = assay: Time-lapse video microscopy, mitotic duration, arrest and exit; assay type: cell-based, human; details: 200 μM CW069, 100 μM monastrol
Protocol: HSET is known to antagonize the activity of the related kinesin, KSP, during spindle formation ([Mountain et al., 1999]). Therefore, we used time-lapse video microscopy to investigate whether CW069-treated cells transit mitosis with normal kinetics, and whether the characteristic mitotic arrest induced by inhibition of KSP ([Mayer et al., 1999]) could be suppressed by cotreatment with CW069. To this end, HeLa cells were treated with either DMSO control (0.2%), 200 μM CW069, 100 μM monastrol, or CW069+monastrol for 60 min before being imaged every 5 min for a further 360 min. Mitotic duration (MD) was defined as the period of time between when the cells began to round up and the onset of anaphase. No statistical difference was recorded between control cells and cells treated with 200 μM CW069 (MD 55 ± 7 and 53 ± 6 min, respectively, Figures 6A, 6B, and S7). […] This effect was reversed to a large extent by cotreatment of CW069 with monastrol. […] This is consistent with observations previously reported for KSP-depleted cells ([Mountain et al., 1999]). […] Cells were synchronized in G2-M by incubation at 37°C and 5% CO2 for 24 hr with 9 μM of the CDK1 inhibitor RO-3306 (Merck). Cells were released by removal of the RO-3306 and four washings of 10 min each, at 37°C, with prewarmed culture media + 10% FBS. N1E-115 cells were transfected with siRNA (Supplemental Experimental Procedures) and imaged from 6 hr after transfection. Some RO-3306-synchronized cells were released with 200 μM CW069, 100 μM monastrol, or 0.2% DMSO, and imaging started immediately or 1 hr after treatment. Imaging was carried out for 24 hr, or for 4 hr in the case of the CW069/monastrol cotreatment. Imaging was conducted every 5 min in a humidified chamber with 37°C and 5% CO2, using a Nikon Eclipse TE2000-E microscope, and analyzed with NIS-Elements software (Nikon, Tokyo, Japan). The morphology of cells in mitosis and the mitotic fate (bipolar division, multipolar division, or cell death) were analyzed.

HeLa cells [4] = assay: Immunofluorescence after time-lapse imaging, monopolar/bipolar spindles; assay type: cell-based, human; details: 200 μM CW069, 100 μM monastrol, 40 mitotic cells
From the text: Immediately after time-lapse imaging, cells were fixed and antibodies against α-tubulin, CDK5RAP2, and DAPI were employed to visualize MTs, centrosomes, and DNA, respectively. […] Control HeLa cells formed mainly bipolar spindles (92%), with two centrosomes positioned at the spindle poles on either side of the metaphase plate (Figure 6C; Table 1). Similar numbers of bipolar spindles were formed in CW069-treated cells (95%; Figure 6C; Table 1). Monastrol-treated cells almost exclusively formed monopolar spindles (97%) with one pole surrounded by DNA ([Luo et al., 2004]; Figure 6C; Table 1). Normal bipolar spindle formation was indeed restored for many cells (45%) when the HSET inhibitor CW069 was administered along with the KSP inhibitor monastrol (Figure 6C; Table 1).
Cells were plated at a seeding density of 1.2 × 10^4 cells per well in Ibidi eight-well chamber slides, incubated for 24 hr, and then treated with compound for 3 hr. Prewarmed 4% paraformaldehyde in PBS was then added to each well to fix the cells before washing with PBS. Permeabilization and blocking was performed by incubating the slides with 1% BSA, 0.3% Triton X-100, 5% goat serum in PBS (PBS/B/0.3%T+5%GS) for 1 hr while shaking them at room temperature (RT). The slides were incubated with primary antibody solutions (mouse monoclonal anti-α-Tubulin [catalog number T9026; Sigma-Aldrich] and rabbit anti-CDK5RAP2 [catalog number A300-554A; Bethyl Laboratories]) at 4°C for 16 hr. The slides were washed four times with PBS/B/0.3%T+5%GS and then incubated with secondary antibody solutions (anti-rabbit IgG Alexa Fluor 488 [catalog number A21206] and anti-mouse IgG Alexa Fluor 647 [catalog number A20990]; Invitrogen) and DAPI (catalog number D3571; Invitrogen) in deionized water (300 nM) in the dark at RT for 1 hr. After four washes with PBS/B/0.3%T+5%GS, the solution was replaced with PBS and the slides were stored at 4°C until imaging was performed. Images were gathered with the use of an ICys Research Imaging Cytometer (CompuCyte) or a tandem confocal microscope (Leica).

[5] = >200 cells that entered mitosis >60 min after treatment

## O=C(c1ccc(N2CCCc3ccccc32)s1)n1ccnc1 [compound 1]
[1]
  reduction of HSET ATPase function: > 60%

## O=C(O)c1cc(I)ccc1NC1C(=O)OC(c2ccccc2)C1c1ccccc1 (stereo not shown) [compound 2]
[1]
  reduction of HSET ATPase function: > 60%

## O=C(O)c1cc(Cl)c(Cl)cc1C(=O)N(Cc1ccccc1)Cc1ccccc1 [compound 3]
[1]; concentrations up to 250 μM, mean ± SD
  IC50: 30 ± 4 µM
[1]; from IC50 values, HSET vs KSP
  selectivity for HSET over KSP: does not possess selectivity for HSET
[2]
  IC50: 29 ± 2 µM

## CCOC(=O)C1=C(C)NC(=S)NC1c1cccc(O)c1 (stereo not shown) [monastrol, reference compound]
HeLa cells [3]; [5]
  Mitotic Arrest (%): 93%
  Mitotic Exit (%): 7%
HeLa cells [3]; rounding up to anaphase onset, cells transiting mitosis
  Mitotic duration (MD): 179 ± 68 min
HeLa cells [4]
  Bipolar Spindle (%): 3%
  Monopolar Spindle (%): 97%

Reference: publication PMC3898838, “Design, Synthesis, and Biological Evaluation of an Allosteric Inhibitor of HSET that Targets Cancer Cells with Supernumerary Centrosomes” (Chemistry & Biology, 2013)
